Target: T1, full length active recombinant SYK enzyme (Homo sapiens, UniProt P43405)
T1 construct: full length active recombinant SYK enzyme (Millipore, Calif.); purchased Millipore
Assay: Inhibition of Syk tyrosine phosphorylation activity (LANCE TR-FRET kinase assay)
Type: biochemical
Details: activity in the Syk assays, class symbols
Method in brief: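 1 nM full-length active recombinant SYK phosphorylated 550 nM biotin-DEEDYESP-OH with 100 μM ATP in 50 mM Tris pH 7.5, 5 mM MgCl2, 1 mM DTT and 3% DMSO for 1 h at room temperature. After EDTA quench, Eu-anti-phosphotyrosine/SA-APC TR-FRET was read after 1 h. IC50s came from non-linear regression.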

SMILES: CC(C)(C)[C@@H](Nc1cnc(C(N)=O)c(Nc2cnc3ccc(F)cc3c2)n1)C(N)=O [Example 234, (R)-5-(1-amino-3,3-dimethyl-1-oxobutan-2-ylamino)-3-(6-fluoroquinolin-3-ylamino)pyrazine-2-carboxamide]
- IC50: 1 to 10 nM

SMILES: NC(=O)c1ncc(N[C@@H]2CCCC[C@@H]2N)nc1Nc1cncc(F)c1 [Example 418, 5-(((1R,2S)-2-aminocyclohexyl)amino)-3-((5-fluoropyridin-3-yl)amino)pyrazine-2-carboxamide]
- IC50: 1 to 10 nM

SMILES: CC[C@@H](Nc1cnc(C(N)=O)c(Nc2ccc(OCC(F)(F)F)nc2)n1)C(N)=O [Example 316, (R)-5-(1-amino-1-oxobutan-2-ylamino)-3-(6-(2,2,2-trifluoroethoxy)pyridin-3-ylamino)pyrazine-2-carboxamide]
- IC50: 10 to 100 nM

SMILES: CC[C@@H](Nc1cnc(C(N)=O)c(Nc2ccc(-c3ccncc3)cc2)n1)C(N)=O [Example 28, (R)-5-(1-amino-1-oxobutan-2-ylamino)-3-(4-(pyridin-4-yl)phenylamino)pyrazine-2-carboxamide]
- IC50: 1 to 10 nM

SMILES: COc1ccc(Nc2nc(N[C@@H]3CCCC[C@@H]3N)cnc2C(N)=O)cn1 [Example 296, 5-((1R,2S)-2-aminocyclohexylamino)-3-(6-methoxypyridin-3-ylamino)pyrazine-2-carboxamide]
- IC50: 1 to 10 nM

SMILES: COc1cc(Nc2nc(N[C@H](CC3CC3)C(N)=O)cnc2C(N)=O)cc(OC)c1 [Example 164, (R)-5-(1-amino-3-cyclopropyl-1-oxopropan-2-ylamino)-3-(3,5-dimethoxyphenylamino)pyrazine-2-carboxamide]
- IC50: 1 to 10 nM

SMILES: NC(=O)c1ncc(N[C@@H](C(N)=O)C2CC2)nc1Nc1ccc2ncccc2c1 [Example 76, (R)-5-(2-amino-1-cyclopropyl-2-oxoethylamino)-3-(quinolin-6-ylamino)pyrazine-2-carboxamide]
- IC50: 1 to 10 nM

SMILES: CC(C)[C@@H](Nc1cnc(C(N)=O)c(Nc2ccc(CS(C)(=O)=O)cc2)n1)C(N)=O [Example 150, (R)-5-(1-amino-3-methyl-1-oxobutan-2-ylamino)-3-(4-(methylsulfonylmethyl)phenylamino)pyrazine-2-carboxamide]
- IC50: 100 to 1000 nM

SMILES: NC(=O)c1ncc(N[C@@H]2CCCC(F)(F)[C@@H]2N)nc1Nc1ccnc(OC2CCC2)c1 [Example 356, 5-((1R,2R)-2-amino-3,3-difluorocyclohexylamino)-3-(2-cyclobutoxypyridin-4-ylamino)pyrazine-2-carboxamide]
- IC50: 10 to 100 nM

SMILES: CC(C)C[C@@H](Nc1cnc(C(N)=O)c(Nc2cccc(-n3nccn3)c2)n1)C(N)=O [Example 64, (R)-3-(3-(2H-1,2,3-triazol-2-yl)phenylamino)-5-(1-amino-4-methyl-1-oxopentan-2-ylamino)pyrazine-2-carboxamide]
- IC50: 10 to 100 nM

SMILES: CC[C@@H](Nc1cnc(C(N)=O)c(Nc2cccc3ccncc23)n1)C(N)=O [Example 377, (R)-5-(1-amino-1-oxobutan-2-ylamino)-3-(isoquinolin-8-ylamino)pyrazine-2-carboxamide]
- IC50: 100 to 1000 nM

SMILES: CC(C)C[C@@H](Nc1cnc(C(N)=O)c(Nc2ccc(-c3ccccn3)cc2)n1)C(N)=O [Example 88, (R)-5-(1-amino-4-methyl-1-oxopentan-2-ylamino)-3-(4-(pyridin-2-yl)phenylamino)pyrazine-2-carboxamide]
- IC50: 1 to 10 nM

SMILES: CC[C@@H](Nc1cnc(C(N)=O)c(Nc2ccc3ncncc3c2)n1)C(N)=O [Example 404, (R)-5-(1-amino-1-oxobutan-2-ylamino)-3-(quinazolin-6-ylamino)pyrazine-2-carboxamide]
- IC50: 10 to 100 nM

SMILES: CC[C@@H](Nc1cnc(C(N)=O)c(Nc2cc(OC)cc(OC)c2)n1)C(N)=O [Example 158, (R)-5-(1-amino-1-oxobutan-2-ylamino)-3-(3,5-dimethoxyphenylamino)pyrazine-2-carboxamide]
- IC50: 10 to 100 nM

SMILES: NC(=O)c1ncc(N[C@H]2CC[C@@H](N)CC2)nc1Nc1cnc2ccccc2c1 [Example 185, 5-((1s,4s)-4-aminocyclohexylamino)-3-(quinolin-3-ylamino)pyrazine-2-carboxamide]
- IC50: 10 to 100 nM

SMILES: CC(C)C[C@@H](Nc1cnc(C(N)=O)c(Nc2cccc(C(=O)N(C)C)c2)n1)C(N)=O [Example 292, (R)-5-(1-amino-4-methyl-1-oxopentan-2-ylamino)-3-(3-(dimethylcarbamoyl)phenylamino)pyrazine-2-carboxamide]
- IC50: 100 to 1000 nM

SMILES: Cn1ccc2cc(Nc3nc(N[C@@H]4CCCC(F)(F)[C@@H]4N)cnc3C(N)=O)ccc21 [Example 391, 5-((1R,2R)-2-amino-3,3-difluorocyclohexylamino)-3-(1-methyl-1H-indol-5-ylamino)pyrazine-2-carboxamide]
- IC50: 1 to 10 nM

SMILES: CCc1cc(Nc2nc(N[C@@H](C(N)=O)C(C)C)cnc2C(N)=O)sn1 [Example 224, (R)-5-(1-amino-3-methyl-1-oxobutan-2-ylamino)-3-(3-ethylisothiazol-5-ylamino)pyrazine-2-carboxamide]
- IC50: 1 to 10 nM

SMILES: CC[C@@H](Nc1cnc(C(N)=O)c(Nc2ccc(-c3cnn(C)c3)cc2)n1)C(N)=O [Example 359, (R)-5-(1-amino-1-oxobutan-2-ylamino)-3-(4-(1-methyl-1H-pyrazol-4-yl)phenylamino)pyrazine-2-carboxamide]
- IC50: 1 to 10 nM

SMILES: CC(C)[C@@H](Nc1cnc(C(N)=O)c(Nc2cncc(Cl)c2)n1)C(N)=O [Example 222, (R)-5-(1-amino-3-methyl-1-oxobutan-2-ylamino)-3-(5-chloropyridin-3-ylamino)pyrazine-2-carboxamide]
- IC50: 10 to 100 nM

SMILES: CC[C@@H](Nc1cnc(C(N)=O)c(Nc2ccnc(N(C)C)c2)n1)C(N)=O [Example 353, (R)-5-(1-amino-1-oxobutan-2-ylamino)-3-(2-(dimethylamino)pyridin-4-ylamino)pyrazine-2-carboxamide]
- IC50: 1 to 10 nM

SMILES: CN1C(=O)COc2ccc(Nc3nc(N[C@@H]4CCCC(F)(F)[C@@H]4N)cnc3C(N)=O)cc21 [Example 230, 5-((1R,2R)-2-amino-3,3-difluorocyclohexylamino)-3-(4-methyl-3-oxo-3,4-dihydro-2H-benzo[b][1,4]oxazin-6-ylamino)pyrazine-2-carboxamide]
- IC50: 10 to 100 nM

SMILES: CC(C)C[C@@H](Nc1cnc(C(N)=O)c(Nc2ccc3ncccc3c2)n1)C(N)=O [Example 2, (R)-5-(1-amino-4-methyl-1-oxopentan-2-ylamino)-3-(quinolin-6-ylamino)pyrazine-2-carboxamide]
- IC50: 1 to 10 nM

SMILES: NC(=O)c1ncc(N[C@H]2CCCNC2)nc1Nc1ccc2ncccc2c1 [Example 58, (S)-5-(piperidin-3-ylamino)-3-(quinolin-6-ylamino)pyrazine-2-carboxamide]
- IC50: 10 to 100 nM

SMILES: CC(C)[C@@H](Nc1cnc(C(N)=O)c(Nc2cnc3cccnc3c2)n1)C(N)=O [Example 193, (R)-3-(1,5-naphthyridin-3-ylamino)-5-(1-amino-3-methyl-1-oxobutan-2-ylamino)pyrazine-2-carboxamide]
- IC50: 10 to 100 nM

SMILES: CC[C@@H](Nc1nc(Nc2cc(C)ns2)c(C(N)=O)nc1Cl)C(N)=O [Example 137, (R)-5-((1-amino-1-oxobutan-2-yl)amino)-6-chloro-3-((3-methylisothiazol-5-yl)amino)pyrazine-2-carboxamide]
- IC50: 10 to 100 nM

SMILES: CC(C)C[C@@H](Nc1cnc(C(N)=O)c(Nc2cccc(-c3ccccn3)c2)n1)C(N)=O [Example 98, (R)-5-(1-amino-4-methyl-1-oxopentan-2-ylamino)-3-(3-(pyridin-2-yl)phenylamino)pyrazine-2-carboxamide]
- IC50: 10 to 100 nM

SMILES: CC(C)C[C@@H](Nc1cnc(C(N)=O)c(Nc2ccnc(C3CC3)c2)n1)C(N)=O [Example 344, (R)-5-(1-amino-4-methyl-1-oxopentan-2-ylamino)-3-(2-cyclopropylpyridin-4-ylamino)pyrazine-2-carboxamide]
- IC50: < 1 nM

SMILES: Cc1ccc(Nc2nc(N[C@@H](C(N)=O)C(C)C)cnc2C(N)=O)cc1C [Example 162, (R)-5-(1-amino-3-methyl-1-oxobutan-2-ylamino)-3-(3,4-dimethylphenylamino)pyrazine-2-carboxamide]
- IC50: 10 to 100 nM

SMILES: CC(C)C[C@@H](Nc1cnc(C(N)=O)c(Nc2ccc(C(=O)O)nc2)n1)C(N)=O [Example 294, (R)-5-(6-(1-amino-4-methyl-1-oxopentan-2-ylamino)-3-carbamoylpyrazin-2-ylamino)picolinic acid]
- IC50: 100 to 1000 nM

SMILES: CC(C)[C@@H](Nc1cnc(C(N)=O)c(Nc2cnc3c(F)cccc3c2)n1)C(N)=O [Example 204, (R)-5-(1-amino-3-methyl-1-oxobutan-2-ylamino)-3-(8-fluoroquinolin-3-ylamino)pyrazine-2-carboxamide]
- IC50: 1 to 10 nM

SMILES: NC(=O)c1ncc(N[C@@H]2CCCC(F)(F)[C@@H]2N)nc1Nc1cnc2cc(F)ccc2c1 [Example 227, 5-((1R,2R)-2-amino-3,3-difluorocyclohexylamino)-3-(7-fluoroquinolin-3-ylamino)pyrazine-2-carboxamide]
- IC50: 10 to 100 nM

SMILES: CS(=O)(=O)c1ccc(Nc2nc(N[C@@H]3CCCC(F)(F)[C@@H]3N)cnc2C(N)=O)cc1 [Example 167, 5-((1R,2R)-2-amino-3,3-difluorocyclohexylamino)-3-(4-(methylsulfonyl)phenylamino)pyrazine-2-carboxamide]
- IC50: 10 to 100 nM

SMILES: CC[C@@H](Nc1cnc(C(N)=O)c(Nc2ccc(-c3cccnc3)cc2)n1)C(N)=O [Example 29, (R)-5-(1-amino-1-oxobutan-2-ylamino)-3-(4-(pyridin-3-yl)phenylamino)pyrazine-2-carboxamide]
- IC50: 1 to 10 nM

SMILES: COc1ccc(Nc2nc(N[C@@H]3CCCC(F)(F)[C@@H]3N)cnc2C(N)=O)cc1 [Example 24, 5-((1R,2R)-2-amino-3,3-difluorocyclohexylamino)-3-(4-methoxyphenylamino)pyrazine-2-carboxamide]
- IC50: 10 to 100 nM

SMILES: NC(=O)c1ncc(N[C@@H]2CCCC[C@@H]2N)nc1Nc1ccnc(C2CC2)c1 [Example 352, 5-((1R,2S)-2-aminocyclohexylamino)-3-(2-cyclopropylpyridin-4-ylamino)pyrazine-2-carboxamide]
- IC50: < 1 nM

— patent US9359308B2, “Pyrazine kinase inhibitors” (Portola Pharmaceuticals, Inc., priority 2011, dated 2016)
